Experimental data: US20060115538A1, “Calcium lactate and whey permeate for lowering the triglyceride level” (priority 2002, published 2006)

Columns and labels:
Assay type in all cases: in vivo
WOK.W rat [1] = test: Feeding trial in male WOK.W rats: serum triglycerides; details: 16 weeks old, after 12 weeks supplementation via drinking water, mean ± SEM, pathological threshold >2.3 mmol/l, a: P < 0.01
Description: (§1) Both pharmacological and nutrition-induced intervention trials on patients with an increased triglyceride level are above all time consuming, in order to detect changes of the metabolism, and require a high degree of discipline and motivation of the test persons or patients taking part in the studies. In part, these disadvantages can be lessened or eliminated by animal experiments, under the precondition that equivalent animal models are available. […] The specific properties of WOK.W rats are described, e.g., in: • P. Kovacs et al., Ann. N.Y. Acad. Sci., 1997, 827, 94-99; • P. Kovacs et al., Biochem. Biophsy. Res. Commun., 2000, 660-665; • J. van den Brandt et al., Int. J. Obesity, 2000, 24, 1618-1622; • J. van den Brandt et al., Metabolism 49, 2000, 1140-1144. […]
(§2) Body weight, body length (for the calculation of the mody mass index, BMI), plasma glucose, and serum triglycerides were recorded every 2 weeks. […]
(§3) Plasma glucose was measured enzymatically using a glucose analyzer. Lipid metabolism parameters were determined enzymatically with an automated analyzer for clinical chemistry, with kits (Boehringer Mannheim: triglycerides with TG GPO-PAP), according to the supplied instruction manuals. […]
(§4) The results are represented as mean values ±SEM and the statistical significance was calculated using Student's t-test.

WOK.W rat [2] = test: Feeding trial in male WOK.W rats: plasma glucose; details: 16 weeks old, after 12 weeks supplementation via drinking water, mean ± SEM, pathological threshold >8.4 mmol/l
Description: as §1, §2, §3, §4

WOK.W rat [3] = test: Feeding trial in male WOK.W rats: body mass, BMI, pararenal adipose tissue; details: 16 weeks old, after 12 weeks supplementation via drinking water, mean ± SEM
Description: Both pharmacological and nutrition-induced intervention trials on patients with an increased triglyceride level are above all time consuming, in order to detect changes of the metabolism, and require a high degree of discipline and motivation of the test persons or patients taking part in the studies. In part, these disadvantages can be lessened or eliminated by animal experiments, under the precondition that equivalent animal models are available. […] The specific properties of WOK.W rats are described, e.g., in: • P. Kovacs et al., Ann. N.Y. Acad. Sci., 1997, 827, 94-99; • P. Kovacs et al., Biochem. Biophsy. Res. Commun., 2000, 660-665; • J. van den Brandt et al., Int. J. Obesity, 2000, 24, 1618-1622; • J. van den Brandt et al., Metabolism 49, 2000, 1140-1144.
31 male WOK.W rats (from 8 litters) were divided, at an age of 4 weeks, into 4 groups, such that one sibling was represented in each group. Group 1 (n=8 animals) was fed and watered ad libitum and served as an untreated control group. Group 2 (n=7 animals) received drinking water to which had been added whey permeate (25 g sweet whey permeate/1000 ml drinking water), a daily water requirement of 20 ml on average being assumed as the basis of the calculation. Group 3 (n=8 animals) received drinking water to which had been added calcium L-lactate (5,6 g calcium L-lactate/1000 ml drinking water), and group 4 (n=8 animals) received whey permeate and calcium L-lactate in identical concentrations. The treatment trial began at an age of 4 weeks, i.e. before the development of the most important symptoms of the metabolic syndrome, and continued for 12 weeks, until an age of 16 weeks.
as §2, §4

**Q.** With `C[C@H](O)C(=O)[O-].C[C@H](O)C(=O)[O-].[Ca+2]` [Calcium lactate, calcium L-lactate] as the compound, how does the Triglyceride (WOK.W rat [1]) read?
**A.** 3.88 ± 0.22 mmol/L

**Q.** And the Blood sugar (WOK.W rat [2])?
**A.** 6.10 ± 0.21 mmol/L

**Q.** What about the BMI (WOK.W rat [3]) of the same compound?
**A.** 0.77 ± 0.01 g/cm^2

**Q.** What about the Body mass (WOK.W rat [3]) of the same compound?
**A.** 394.3 ± 10.6 G

**Q.** And the Adipose tissue (WOK.W rat [3]; pararenal adipose tissue)?
**A.** 10.01 ± 0.71 G
